Experiment [1] relates to patients affected by either non-ulcer dyspepsia, biliary dyskinesis or irritable bowel syndrome. Briefly: Open clinical study in digestive disorders: overall (psychosomatic) condition. The class given is in vivo, human. Particulars: % of cases, 3 months, group A 150 mg ursodeoxycholic acid, group B 300 mg quercetin, group C Example 2; for Overall (psychosomatic) condition: Improved: unrestricted fat diet. The source says: The patients treated with the composition of the invention during or at the end of the meals were able to digest any type of foods including heavy or spicy ones. […] The improvement of the symptoms of patients treated with the composition of Example 2 was higher than that of the bile acid or bioflavonoid treatment alone.
(§1) In these studies 48 patients affected by either non-ulcer dyspepsia, biliary dyskinesis or irritable bowel syndrome were involved. 24 patients with unrestricted fat diet received only 150 mg of ursodeoxycholic acid (group A) and 24 patients only bioflavonoid (300 mg of quercetin) (group B) for 3 months. After one-month washout both groups received ursodeoxycholic acid+quercetin (Example 2) (group C) for another 3 months.
The overall (psychosomatic) condition and subjective symptoms were compared to the results of an age and sex matched control group.
The evaluation of the psychosomatic condition: improved, unchanged, worsened.

For experiment [2] the test system is unchanged. As to the kind of experiment: Open clinical study in digestive disorders: subjective gastrointestinal symptoms, grade 0-3. The class given is in vivo, human. As to conditions: total number of points/number of patients, 3 months, control group value in brackets. Here is the method:
as §1
The gastrointestinal symptoms (postprandial early satiety, abdominal distention or bloating, nausea, vomitus, diarrhea, constipation) were evaluated by using the following grading system:
The treatments A, B and C shown in point 1 were used. In Table 2 the average complaint ratio related to one patient was given (average complaint ratio=total number of points/number of patients). The values of the control groups are given in brackets.

In experiment [3] the test system is female patients affected by digestive disorders, "dry eye" syndrome and premenstrual syndrome. As to the kind of experiment: Improvement of activity of fat-soluble substances: "dry eye" syndrome symptoms. The class given is in vivo, human. Here is the method: (§2) 72 female patients affected by digestive disorders, “dry eye” syndrome and premenstrual syndrome were treated Intramuscularly administered vitamin A improved the symptoms of “dry eye” and premenstral syndrome, but it was ineffective by peroral administration.
The subjective symptoms were evaluated by questionairs by using the following grade:
“Dry eye” syndrome has the following symptoms: sensation of dryness, foreign body, tired eye, soreness, scatchiness, burning, reduced tearing of emotion, difficulties of opening the eye upon waking, episodes of excessive tearing, particular sensibility to wind, air conditioning, smoking, topical medication. Objective signs: particulate matter on the ocular surface, mucusthread at the inner canthus or in the lower fornix, deposits at the orefices of the meibomian glands, filamentary keratitis, hyperemia of the bulbar conjunctiva, papillary hypertrophy of the tarsal conjunctiva, thin tear meniscus, decreased brightness of the bulbar conjunctiva, frequent blinking, tear film abnormalities with fluorescein staining.
The patients were treated as follows:
(§3) Treatment A: 300.000 IU vitamin A in oil intramuscular administration ones per months,
(§4) Treatment B: 50.000 IU vitamin A acetate dragée peroral administration, once every second day,
(§5) Treatment C: 50.000 IU vitamin A acetate dragée peroral administration, once every second day+composition of the invention (Example 4).

The test system is the same in experiment [4]. As to the kind of experiment: Treatment of premenstrual symptoms. The class given is in vivo, human. Here is the method: as §2, §3, §4, §5
Symptoms of the premenstrual syndrome: food (sweets or chocolate) craving, exhaustion, irritability, fearfullness, anxiety or depression, hostility, feeling out of control, confusion, sleep disturbances, acne, fluid retention, weight gain, breast swelling, aches and pains, bloating, constipation or diarrhoea.
The number of patients, methods of treatment and the grade of evaluation were the same as shown in experiment 3.

The subject of experiment [5] is Dry eye model in Wistar rats by retrobulbar injection of capsaicin. As to the kind of experiment: Topical treatment of "dry eye": capsaicin dry eye model. The class given is in vivo. Particulars: one drop 3 times per day. Here is the method: Dry eye model was created in 16 Wistar rats in one eye by retrobulbar injection of capsaicin as it was published in [Camras PCB, Bito L Z: The pathophysiological effects of nitrogen mustard on the rabbit eye. II. The inhibition of the initial hypersensitive phase by capsaicin and the apparent role of substance P. Invest Ophthaimol Vis Sci. 19, 423-8 (1980)], while the other eye (control) was not treated at all.
The following treatments were applied:
A treatment: 4 rats were treated with topical artificial tear drops, one drop 3 times per day;
B treatment: 4 rats were treated with the composition of Example 10, one drop 3 times per day,
C treatment: 4 rats were treated with the composition of Example 10, one drope 3 times per day+one drop of vitamin A 3 times per day (oil drop; 30 000 IU/ml),
D treatment: 4 rats were treated with vitamin A, one drop 3 times per day (oil drop 30 000 IU/ml).
The condition of eyes were registered as written in the literature and evaluated 4 weeks after treatment on the following scale:
1=punctiform ephitelial loss of the cornea;
2=large ephitelial loss of the cornea with mild corneal edema;
3=large ephitelial loss of the cornea with severe corneal edema.

Where [6] appears, read: peroral, 50.000 IU vitamin A acetate dragée once every second day (Treatment B alone, Treatment C + Example 4).
Setting [7] is: Treatment A: 300.000 IU vitamin A in oil, intramuscular, once per month.

“Also recorded” adds a separate entry of the source. Where only a bound is given, the exact number is not on record here.

For `O=c1c(O)c(-c2ccc(O)c(O)c2)oc2cc(O)cc(O)c12` [quercetin], in experiment [1], the “Overall (psychosomatic) condition: Unchanged or worsened” value amounted to 55% and the “Overall (psychosomatic) condition: Improved” value worked out at 45%. Further, in experiment [2], the “Diarrhoea/constipation, average complaint ratio” value was 0.63 (2.54); the “Meteorism, average complaint ratio” value is listed as 1.96 (2.33); the “Nausea, average complaint ratio” value was 0.92 (1.25); the “Satiety, average complaint ratio” value is reported as 2.04 (2.86). Also, the “Vomitus, average complaint ratio” value in experiment [2] was 0.46 (0.75).
`C[C@H](CCC(=O)O)[C@H]1CC[C@H]2[C@@H]3[C@@H](O)C[C@@H]4C[C@H](O)CC[C@]4(C)[C@H]3CC[C@]12C` [ursodeoxycholic acid]: in experiment [1], the “Overall (psychosomatic) condition: Unchanged or worsened” value is 33% and the “Overall (psychosomatic) condition: Improved” value was 67%. Also, in experiment [2], the “Diarrhoea/constipation, average complaint ratio” value is recorded as 2.19 (2.54); the “Meteorism, average complaint ratio” value is 2.12 (2.78); the “Nausea, average complaint ratio” value is listed as 0.83 (1.17); the “Satiety, average complaint ratio” value is 2.06 (2.92). Moreover, the “Vomitus, average complaint ratio” value in experiment [2] was 0.12 (0.83).
With `CC(=O)OC/C=C(C)/C=C/C=C(C)/C=C/C1=C(C)CCCC1(C)C` [vitamin A acetate], in experiment [3] (setting [6]), the “"Dry eye" symptoms: Improved” value turned out to be 12% and the “"Dry eye" symptoms: Unchanged” value is recorded as 88%. In addition, in experiment [4] (setting [6]), the “Premenstrual symptoms: Improved” value was found to be 8% and the “Premenstrual symptoms: Unchanged” value was 92%.
With vitamin A, in experiment [3] (setting [7]), the “"Dry eye" symptoms: Improved” value is given as 80% and the “"Dry eye" symptoms: Unchanged” value was 20%. The “Symptoms of "dry eye", in words” value in experiment [3] (intramuscular administration) is reported as “improved”. The “Symptoms of "dry eye", in words” value in experiment [3] (peroral administration) is given as “ineffective; also recorded: improved only weakly”. Besides, in experiment [4] (setting [7]), the “Premenstrual symptoms: Improved” value was found to be 72% and the “Premenstrual symptoms: Unchanged” value was 28%. The “Symptoms of premenstrual syndrome, in words” value in experiment [4] (intramuscular administration) was “improved”. Further, in experiment [4] (peroral administration), the “Symptoms of premenstrual syndrome, in words” value is listed as “ineffective; also recorded: hardly improve”. In addition, in experiment [5] (compared to artificial tear drops), the “Improvement of eye alteration (in words)” value is “not significant”. The “Reduced eye alteration compared to treatment with artificial tear drop (treatment A)” value in experiment [5] (evaluated 4 weeks after treatment on scale 0-3, vitamin A oil drop 30 000 IU/ml) is below 5%.

For the origin of these results see patent US20040038952A1, “Pharmaceutical compositions for treatment of digestive disorders and associated diseases” (priority 2000, published 2004).
